According to patent US8034939B2, “Isoindole derivatives, compositions containing same, preparation thereof and pharmaceutical uses thereof in particular as inhibitors of chaperone protein Hsp90 activities” (Aventis Pharma S.A.., priority 2005, dated 2011):

Target: Hsp82 (Saccharomyces cerevisiae, UniProt P02829)
Assay: Hsp82 ATPase activity, PK/LDH coupled enzymatic assay (also malachite green method)
Type: biochemical
Conditions: 1 μM Hsp82, 250 μM ATP, 37° C.
Method: The […] released during the hydrolysis of ATP by the ATPase activity of Hsp82 is quantified by the malachite green method. In the presence of this reagent, formation of the inorganic phosphate-molybdate-malachite green complex occurs, which complex absorbs at a wavelength of 620 nm. The products to be evaluated are incubated in a reaction volume of 30 μl, in the presence of 1 μM Hsp82 and of […] of substrate (ATP) in a buffer composed of 50 mM Hepes-NaOH (pH 7.5), 1 mM DTT, 5 mM MgCl2 and 50 mM KCl at 37° C. for 60 minutes. In parallel, a range of inorganic phosphate between 1 and 40 μM is prepared in the same buffer. […] After incubation at ambient temperature for 20 minutes, the absorbance of the various wells is measured using a microplate reader at 620 nm. The concentration of […] of each sample is then calculated from the standard curve. The ATPase activity of Hsp82 is expressed as concentration of inorganic phosphate produced in 60 minutes. The effect of the various products tested is expressed as percentage inhibition of the ATPase activity. […]
The products tested are incubated in a reaction volume of 100 μl of buffer composed of 100 mM Hepes-NaOH (pH 7.5), 5 mM MgCl2, 1 mM DTT, 150 mM KCl, 0.3 mM NADH, 2.5 mM PEP and 250 μM ATP. […] The enzymatic activity of Hsp82 is then measured, continuously, in a microplate reader, at 37° C., at the wavelength of 340 nm. […]

Chain of Hsp82 (P02829 whole entry): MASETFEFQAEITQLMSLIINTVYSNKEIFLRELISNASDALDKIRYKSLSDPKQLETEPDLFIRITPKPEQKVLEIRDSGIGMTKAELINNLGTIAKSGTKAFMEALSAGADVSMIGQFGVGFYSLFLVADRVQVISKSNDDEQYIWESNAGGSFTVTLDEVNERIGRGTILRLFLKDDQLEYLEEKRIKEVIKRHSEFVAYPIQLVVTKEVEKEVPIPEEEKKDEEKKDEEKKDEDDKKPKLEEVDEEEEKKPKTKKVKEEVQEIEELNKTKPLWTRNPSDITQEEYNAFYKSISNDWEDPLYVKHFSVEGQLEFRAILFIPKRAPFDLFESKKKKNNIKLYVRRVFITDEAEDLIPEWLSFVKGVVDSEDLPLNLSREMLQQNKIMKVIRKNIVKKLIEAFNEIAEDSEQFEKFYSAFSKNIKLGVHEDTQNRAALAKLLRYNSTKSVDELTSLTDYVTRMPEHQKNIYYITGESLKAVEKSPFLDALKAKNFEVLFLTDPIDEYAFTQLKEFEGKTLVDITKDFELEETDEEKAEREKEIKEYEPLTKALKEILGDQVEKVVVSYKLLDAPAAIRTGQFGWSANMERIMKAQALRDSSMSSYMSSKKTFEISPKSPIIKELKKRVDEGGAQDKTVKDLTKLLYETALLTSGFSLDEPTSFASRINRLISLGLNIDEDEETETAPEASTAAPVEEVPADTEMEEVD

Row | IC50 | Compound
1 | 1 to 10 µM | O=C1c2ccccc2C2=C(c3nc4ccncc4[nH]3)CCCN12 [Example 1, 1-{3-H-imidazo[4,5-c]pyridin-2-yl}-3,4-dihydro-2H-pyrido[2,1-a]-isoindole-6-one]
2 | 10 to 100 µM | O=C1c2ccccc2C2=C(c3nc4ccc(O)cc4[nH]3)CCCN12 [Example 2, 1-{1-H-6-hydroxybenzimidazol-2-yl}-3,4-dihydro-2H-pyrido[2,1-a]isoindole-6-one]
